Data: PubChem BioAssay (NCI)
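48-hour exposure; five concentrations; linearly interpolated endpoints. GI50 marks 50% less growth. At the TGI there is no net growth.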

Experiments:
Experiment in all cases: NCI anticancer screen, dose series, 48 h
[1] = tested on: SNB-19 CNS
[2] = tested on: TK-10 renal
[3] = tested on: 786-0 renal
[4] = tested on: OVCAR-3 ovarian
[5] = tested on: IGROV1 ovarian
[6] = tested on: SF-539 CNS
[7] = tested on: OVCAR-4 ovarian
[8] = tested on: A498 renal
[9] = tested on: NCI/ADR-RES ovarian
[10] = tested on: HCC-2998 colon
[11] = tested on: BT-549 breast
[12] = tested on: CCRF-CEM leukemia
[13] = tested on: HCT-15 colon
[14] = tested on: HOP-92 NSCLC
[15] = tested on: RXF 393 renal
[16] = tested on: HOP-62 NSCLC
[17] = tested on: HL-60(TB) leukemia
[18] = tested on: SK-MEL-5 melanoma
[19] = tested on: SN12C renal
[20] = tested on: MDA-MB-435
[21] = tested on: UACC-62 melanoma
[22] = tested on: MDA-MB-231 breast
[23] = tested on: NCI-H226 lung
[24] = tested on: SNB-75 CNS
[25] = tested on: K-562 leukemia
[26] = tested on: PC-3 prostate
[27] = tested on: HCT-116 colon
[28] = tested on: LOX IMVI melanoma
[29] = tested on: NCI-H522 lung
[30] = tested on: SF-268 CNS
[31] = tested on: OVCAR-5 ovarian
[32] = tested on: UO-31 renal
[33] = tested on: SK-OV-3 ovarian
[34] = tested on: NCI-H23 lung
[35] = tested on: RPMI-8226 leukemia
[36] = tested on: MALME-3M melanoma
[37] = tested on: HT29 colon
[38] = tested on: KM12 colon
[39] = tested on: COLO 205 colon
[40] = tested on: MOLT-4 leukemia
[41] = tested on: ACHN renal
[42] = tested on: EKVX NSCLC
[43] = tested on: NCI-H460 lung
[44] = tested on: SK-MEL-28 melanoma
[45] = tested on: MCF7 breast
[46] = tested on: OVCAR-8 ovarian
[47] = tested on: U251 CNS
[48] = tested on: SW-620 colon
[49] = tested on: A549 NSCLC
[50] = tested on: SK-MEL-2 melanoma
[51] = tested on: UACC-257 melanoma
[52] = tested on: T-47D breast
[53] = tested on: HS 578T breast
[54] = tested on: SR leukemia
[55] = tested on: SF-295 CNS
[56] = tested on: DU-145 prostate
[57] = tested on: M14 melanoma
[58] = tested on: CAKI-1 renal

Question: Which results are given for `O=C(Nc1cccc(-c2nc(-c3ccc(NC(=O)c4cccs4)cc3Cl)no2)c1)Nc1ccc(NC(=O)C2CC2)c(C(F)(F)F)c1`?
Answer: GI50 [1]: 301 nM; TGI [1]: 1060 nM; GI50 [2]: 338 nM; TGI [2]: 1540 nM; GI50 [3]: 283 nM; TGI [3]: 1010 nM; GI50 [4]: 280 nM; TGI [4]: 778 nM; GI50 [5]: 229 nM; TGI [5]: 574 nM; GI50 [6]: 188 nM; TGI [6]: 381 nM; GI50 [7]: 223 nM; TGI [7]: 492 nM; GI50 [8]: 174 nM; TGI [8]: 742 nM; GI50 [9]: 3610 nM; TGI [9]: > 100000 nM; GI50 [10]: 321 nM; TGI [10]: 1140 nM; GI50 [11]: 414 nM; TGI [11]: 2430 nM; GI50 [12]: 518 nM; TGI [12]: > 35400 nM; GI50 [13]: 409 nM; TGI [13]: 1850 nM; GI50 [14]: 180 nM; TGI [14]: 450 nM; GI50 [15]: 214 nM; TGI [15]: 494 nM; GI50 [16]: 241 nM; TGI [16]: 624 nM; GI50 [17]: 2270 nM; TGI [17]: > 26800 nM; GI50 [18]: 478 nM; TGI [18]: 1870 nM; GI50 [19]: 220 nM; TGI [19]: 576 nM; GI50 [20]: 230 nM; TGI [20]: 547 nM; GI50 [21]: 205 nM; TGI [21]: 527 nM; GI50 [22]: 219 nM; TGI [22]: 557 nM; GI50 [23]: 227 nM; TGI [23]: 601 nM; GI50 [24]: 183 nM; TGI [24]: 1010 nM; GI50 [25]: 296 nM; TGI [25]: 1670 nM; GI50 [26]: 209 nM; TGI [26]: 460 nM; GI50 [27]: 321 nM; TGI [27]: 1690 nM; GI50 [28]: 185 nM; TGI [28]: 356 nM; GI50 [29]: 244 nM; TGI [29]: 729 nM; GI50 [30]: 344 nM; TGI [30]: 1450 nM; GI50 [31]: 306 nM; TGI [31]: 1140 nM; GI50 [32]: 993 nM; TGI [32]: 3090 nM; GI50 [33]: 795 nM; TGI [33]: 2990 nM; GI50 [34]: 226 nM; TGI [34]: 571 nM; GI50 [35]: 396 nM; TGI [35]: 2140 nM; GI50 [36]: 183 nM; TGI [36]: 376 nM; GI50 [37]: 347 nM; TGI [37]: 2110 nM; GI50 [38]: 317 nM; TGI [38]: 1050 nM; GI50 [39]: 291 nM; TGI [39]: 903 nM; GI50 [40]: 359 nM; TGI [40]: 1790 nM; GI50 [41]: 467 nM; TGI [41]: 3860 nM; GI50 [42]: 295 nM; TGI [42]: 1200 nM; GI50 [43]: 204 nM; TGI [43]: 412 nM; GI50 [44]: 209 nM; TGI [44]: 450 nM; GI50 [45]: 220 nM; TGI [45]: 643 nM; GI50 [46]: 311 nM; TGI [46]: 1330 nM; GI50 [47]: 193 nM; TGI [47]: 414 nM; GI50 [48]: 256 nM; TGI [48]: 660 nM; GI50 [49]: 246 nM; TGI [49]: 653 nM; GI50 [50]: 343 nM; TGI [50]: 1290 nM; GI50 [51]: 836 nM; TGI [51]: 3230 nM; GI50 [52]: 257 nM; TGI [52]: 972 nM; GI50 [53]: 230 nM; TGI [53]: 678 nM; GI50 [54]: 254 nM; TGI [54]: 898 nM; GI50 [55]: 191 nM; TGI [55]: 370 nM; GI50 [56]: 317 nM; TGI [56]: 1130 nM; GI50 [57]: 324 nM; TGI [57]: 1270 nM; GI50 [58]: 244 nM; TGI [58]: 678 nM
